Measured values from article PMC5998028, “Synthesis, antimicrobial activity and conformational analysis of the class IIa bacteriocin pediocin PA-1 and analogs thereof” (Scientific Reports, 2018).

Experiment: Stability of the peptide in solution (storage, handling, assays)
Conditions: qualitative, relative to Met31-containing pediocin PA-1 3c

CC[C@H](C)[C@H](NC(=O)[C@H](CS)NC(=O)[C@@H](NC(=O)[C@@H](NC(=O)[C@H](C)NC(=O)[C@H](CCCCN)NC(=O)CNC(=O)[C@H](Cc1c[nH]c2ccccc12)NC(=O)[C@H](CC(=O)O)NC(=O)[C@@H](NC(=O)[C@H](CO)NC(=O)[C@H](CS)NC(=O)[C@H](CO)NC(=O)[C@H](Cc1c[nH]cn1)NC(=O)[C@H](CCCCN)NC(=O)CNC(=O)[C@H](CS)NC(=O)[C@@H](NC(=O)[C@@H](NC(=O)CNC(=O)[C@H](CC(N)=O)NC(=O)CNC(=O)[C@H](Cc1ccc(O)cc1)NC(=O)[C@H](Cc1ccc(O)cc1)NC(=O)[C@@H](N)CCCCN)C(C)C)[C@@H](C)O)C(C)C)[C@@H](C)O)[C@@H](C)O)C(=O)N[C@H](C(=O)N[C@@H](CC(N)=O)C(=O)N[C@@H](CC(N)=O)C(=O)NCC(=O)N[C@@H](C)C(=O)N[C@@H](CC(C)C)C(=O)N[C@@H](C)C(=O)N[C@@H](Cc1c[nH]c2ccccc12)C(=O)N[C@@H](C)C(=O)N[C@H](C(=O)NCC(=O)NCC(=O)N[C@@H](Cc1c[nH]cn1)C(=O)N[C@@H](CCC(N)=O)C(=O)NCC(=O)N[C@@H](CC(N)=O)C(=O)N[C@@H](Cc1c[nH]cn1)C(=O)N[C@@H](CCCCN)C(=O)N[C@@H](CS)C(=O)O)[C@@H](C)O)[C@@H](C)CC [compound 4]
molecular stability / stability in solution during storage, handling and assays: significantly greater
